Experimental data as given in ChEMBL document CHEMBL1201862, “PubChem BioAssay data set” (2004).
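Grown in 96-well plates, cells were treated for 48 hours with each compound at five concentrations. Insufficient inhibition: endpoint recorded as highest concentration tested. GI50 is the concentration that inhibits growth by half.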 Calls of active or inactive are those of the source. Cut-off read from the data, not from the text of the source: active = GI50 up to about 1.1 µM and inactive = higher.

Columns and labels:
Experiment in all cases: NCI anticancer screen, dose series, 48 h
EKVX = system: EKVX
HCT-15 = system: HCT-15
HOP-18 = system: HOP-18
HOP-62 = system: HOP-62
K562 = system: K562
MOLT-4 = system: MOLT-4
Malme-3M = system: Malme-3M
NCI-H226 = system: NCI-H226
OVCAR-8 = system: OVCAR-8
RPMI-8226 = system: RPMI-8226
RXF 393 = system: RXF 393
SF-295 = system: SF-295
SNB-19 = system: SNB-19
SNB-75 = system: SNB-75
SR = system: SR
U-251 = system: U-251
NCI-H522 = system: NCI-H522
SK-MEL-5 = system: SK-MEL-5
Hs-578T = system: Hs-578T
T47D = system: T47D

SMILES	GI50 (EKVX)	GI50 (HCT-15) [µM]	GI50 (HOP-18)	GI50 (HOP-62)	GI50 (K562)	GI50 (MOLT-4)	GI50 (Malme-3M)	GI50 (NCI-H226)	GI50 (OVCAR-8)	GI50 (RPMI-8226)	GI50 (RXF 393)	GI50 (SF-295)	GI50 (SNB-19)	GI50 (SNB-75)	GI50 (SR)	GI50 (U-251)	GI50 (NCI-H522)	GI50 (SK-MEL-5)	GI50 (Hs-578T)	GI50 (T47D)
NCCn1cnc2nc(NC(=O)c3ccccc3)[nH]c(=O)c21	> 100 µM (inactive)	> 100	> 100 µM (inactive)	> 100 µM (inactive)	> 100 µM (inactive)	> 100 µM (inactive)	> 100 µM (inactive)	> 100 µM (inactive)	> 100 µM (inactive)	> 100 µM (inactive)	> 100 µM (inactive)	> 100 µM (inactive)	> 100 µM (inactive)	45.7 µM (inactive)	> 100 µM (inactive)	> 100 µM (inactive)	–	–	–	–
O=c1c2c(nc3n1CCC3)sc1c(O)c(Br)ccc12	23.9 µM (inactive)	18.6	> 100 µM (inactive)	19.1 µM (inactive)	19.3 µM (inactive)	11.1 µM (inactive)	17.5 µM (inactive)	19.6 µM (inactive)	10.7 µM (inactive)	21.3 µM (inactive)	29.9 µM (inactive)	17.3 µM (inactive)	54.7 µM (inactive)	> 100 µM (inactive)	12.1 µM (inactive)	20.2 µM (inactive)	16 µM (inactive)	14.5 µM (inactive)	–	–
O=[N+]([O-])c1cc(I)cc(/C=N/NS(=O)(=O)c2ccc(Cl)cc2)c1O	32.6 µM (inactive)	20.4	19.1 µM (inactive)	25.6 µM (inactive)	20 µM (inactive)	19.5 µM (inactive)	22 µM (inactive)	–	20.7 µM (inactive)	25.4 µM (inactive)	23.4 µM (inactive)	25.6 µM (inactive)	29.9 µM (inactive)	27 µM (inactive)	21.4 µM (inactive)	18.7 µM (inactive)	16.9 µM (inactive)	18 µM (inactive)	–	–
COc1cccc(NC(=O)CSc2nnc(-c3ccc(/N=C\c4ccc(Cl)cc4)cc3)o2)c1	36.7 µM (inactive)	17.3	40 µM (inactive)	31.6 µM (inactive)	32.6 µM (inactive)	23.4 µM (inactive)	17.7 µM (inactive)	22.8 µM (inactive)	24.4 µM (inactive)	18.2 µM (inactive)	18.3 µM (inactive)	20.2 µM (inactive)	19.5 µM (inactive)	23.8 µM (inactive)	28.2 µM (inactive)	17.1 µM (inactive)	15.6 µM (inactive)	18.6 µM (inactive)	–	–
N/N=C(/Cc1nc2ccc(C(=O)c3ccccc3)cc2nc1O)C(=O)Nc1ccc([N+](=O)[O-])cc1[N+](=O)[O-]	> 100 µM (inactive)	> 10	35.5 µM (inactive)	–	> 10 µM (inactive)	> 10 µM (inactive)	> 100 µM (inactive)	> 10 µM (inactive)	81.8 µM (inactive)	> 10 µM (inactive)	> 100 µM (inactive)	> 10 µM (inactive)	> 100 µM (inactive)	> 10 µM (inactive)	> 10 µM (inactive)	> 10 µM (inactive)	> 10 µM (inactive)	86.7 µM (inactive)	–	–
CCC1(O)C(=O)OCc2c1cc1n(c2=O)Cc2cc3cc4c(cc3nc2-1)OCO4 (stereo not drawn)	0.0776 µM (active)	0.0306	< 0.01 µM (active)	< 0.01 µM (active)	0.0142 µM (active)	< 0.01 µM (active)	0.0164 µM (active)	< 0.01 µM (active)	< 0.01 µM (active)	0.0236 µM (active)	< 0.01 µM (active)	< 0.01 µM (active)	< 0.01 µM (active)	< 0.01 µM (active)	< 0.215 µM (active)	< 0.01 µM (active)	< 0.01 µM (active)	< 0.01 µM (active)	0.857 µM (active)	< 0.01 µM (active)
CC(=O)O[C@]1(C)CCC2C(C)C(=O)OC2C2C(C)[C@@H](O)CC21 (stereo partly drawn)	67.5 µM (inactive)	18.1	40.6 µM (inactive)	19.3 µM (inactive)	17.1 µM (inactive)	–	> 100 µM (inactive)	31.4 µM (inactive)	87.9 µM (inactive)	20.5 µM (inactive)	32.3 µM (inactive)	72.3 µM (inactive)	28.3 µM (inactive)	60.5 µM (inactive)	3.56 µM (inactive)	30.1 µM (inactive)	13.1 µM (inactive)	32.1 µM (inactive)	–	–
